Data on 1 molecule can be found in patent US6384028B1, “N-acylpiperidinylcarbonylaminocarboxylic acids and their use as glycoprotein IIb/IIIa antagonists and fibrinogen-blood platelets binding inhibitors” (Fujisawa Pharmaceutical Co., Ltd., priority 1995, dated 2002).

The test system of the assay is platelet aggregation induced by ADP in platelet rich plasma (PRP) prepared from human blood. Briefly: Effect on platelet aggregation induced by adenosine diphosphate (ADP). The class given is cell-based. The following applies: 2 min, 3×10^8 platelets/ml, drug stirred for 2 minutes at 37° C., ADP final 2.5 μM, aggregometer. How it is done:
Test 1: Effect on Platelet Aggregation Induced by Adenosine Diphosphate (ADP)
Platelet rich plasma (PRP) which contains 3×10^8 platelets/ml was prepared from human blood. To the 225 μl of PRP, 25 μl of drug solution* was added, and then stirred for 2 minutes at 37° C. To the solution 5 μl of ADP (final 2.5 μM) was added as an aggregation inducer. Aggregation was measured by using an aggregometer (NBS HEMA-TRACER 801). Activity of inhibitor (test compound) was expressed as IC50 value i.e. dose required for […] inhibition of platelet aggregation.
Drug solution* - - - Test compound was dissolved in water.

SMILES strings stand for the structures. Structures can show the parent of a compound that is named as a salt.

In turn, `O=C(O)C[C@@H](CCc1ccccc1)NC(=O)[C@@H]1CCCN(C(=O)/C=C/C2CCNCC2)C1` [Example 25, N-[(R)-1-[3-(4-Piperidyl)-(E)-acryloyl]-3-piperidylcarbonyl]-3(R)-phenethyl-β-alanine Hydrochloride] came in with an IC50 of 85 nM.
